Assay results: patent publication US20260242353A1, “HETEROARYL DERIVATIVES AS DDRs INHIBITORS” (CHIESI FARMACEUTICI S.P.A., priority 2022, published 2026)

Tests used:
DDR1 = biological target: T1, DDR1 (Homo sapiens, UniProt Q08345); assay: LanthaScreen Europium Kinase Binding assay, DDR1; conditions: 5 nM DDR1, 20 nM Kinase Tracer 178, 1 h at rt; Ki from IC50 by Cheng-Prusoff; read-out: Ki DDR1
T1 construct: purchased Carna Biosciences
Procedure: (§1) DDR1 and DDR2 binding assays were performed using Life Technologies LanthaScreen™ Europium Kinase Binding assay. The compounds were incubated with 5 nM DDR1 (Carna Biosciences) or 5 nM DDR2 (Life Technologies) for 1 h at rt in white 384-well OptiPlate (PerkinElmer), containing 20 nM or 10 nM Kinase Tracer 178 respectively and 2 nM Europium labelled anti-GST antibody (Life Technologies) in assay buffer (50 mM HEPES pH 7.5, 10 mM MgCI2, 1 mM EGTA and 0.01% BRIJ35). The ratio of fluorescence emission 665 nm/615 nm after excitation at 340 nm was obtained using the Tecan Spark 20M plate reader. IC50 values were determined in GraphPad Prism 7.0 software, using 4 parameter model: log(inhibitor) vs. response. IC50 values were converted in Ki using the Cheng-Prusoff equation (Ki=IC50/(1+[Tracer]/Kd).

DDR2 = biological target: T2, DDR2 (Homo sapiens, UniProt Q16832); assay: LanthaScreen Europium Kinase Binding assay, DDR2; conditions: 5 nM DDR2, 10 nM Kinase Tracer 178, 1 h at rt; Ki from IC50 by Cheng-Prusoff; read-out: Ki DDR2
T2 construct: purchased Life Technologies
T2 sequence (Q16832 22-855): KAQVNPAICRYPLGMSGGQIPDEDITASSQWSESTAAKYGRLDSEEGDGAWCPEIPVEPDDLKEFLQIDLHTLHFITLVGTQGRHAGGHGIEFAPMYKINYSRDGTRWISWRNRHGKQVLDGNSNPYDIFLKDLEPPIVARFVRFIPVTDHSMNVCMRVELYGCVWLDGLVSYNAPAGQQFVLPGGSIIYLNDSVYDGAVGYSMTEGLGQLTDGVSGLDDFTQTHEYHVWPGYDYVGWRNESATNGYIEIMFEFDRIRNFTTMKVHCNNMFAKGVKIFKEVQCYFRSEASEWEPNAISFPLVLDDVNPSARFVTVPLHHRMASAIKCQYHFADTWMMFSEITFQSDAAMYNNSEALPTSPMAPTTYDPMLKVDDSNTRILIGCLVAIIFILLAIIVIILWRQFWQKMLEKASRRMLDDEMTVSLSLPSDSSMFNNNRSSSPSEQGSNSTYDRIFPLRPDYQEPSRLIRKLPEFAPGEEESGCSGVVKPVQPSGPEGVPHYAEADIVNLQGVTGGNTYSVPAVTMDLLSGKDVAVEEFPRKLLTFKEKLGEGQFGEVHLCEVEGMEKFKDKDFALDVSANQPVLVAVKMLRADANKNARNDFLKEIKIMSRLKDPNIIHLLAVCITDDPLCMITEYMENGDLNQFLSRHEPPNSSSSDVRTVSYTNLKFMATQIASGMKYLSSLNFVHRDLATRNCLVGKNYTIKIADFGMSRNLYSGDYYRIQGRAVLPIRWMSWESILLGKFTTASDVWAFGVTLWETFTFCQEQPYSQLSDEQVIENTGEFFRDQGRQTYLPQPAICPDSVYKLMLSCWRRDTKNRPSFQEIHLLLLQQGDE
Procedure: as §1

T1 sequence (Q08345 19-913): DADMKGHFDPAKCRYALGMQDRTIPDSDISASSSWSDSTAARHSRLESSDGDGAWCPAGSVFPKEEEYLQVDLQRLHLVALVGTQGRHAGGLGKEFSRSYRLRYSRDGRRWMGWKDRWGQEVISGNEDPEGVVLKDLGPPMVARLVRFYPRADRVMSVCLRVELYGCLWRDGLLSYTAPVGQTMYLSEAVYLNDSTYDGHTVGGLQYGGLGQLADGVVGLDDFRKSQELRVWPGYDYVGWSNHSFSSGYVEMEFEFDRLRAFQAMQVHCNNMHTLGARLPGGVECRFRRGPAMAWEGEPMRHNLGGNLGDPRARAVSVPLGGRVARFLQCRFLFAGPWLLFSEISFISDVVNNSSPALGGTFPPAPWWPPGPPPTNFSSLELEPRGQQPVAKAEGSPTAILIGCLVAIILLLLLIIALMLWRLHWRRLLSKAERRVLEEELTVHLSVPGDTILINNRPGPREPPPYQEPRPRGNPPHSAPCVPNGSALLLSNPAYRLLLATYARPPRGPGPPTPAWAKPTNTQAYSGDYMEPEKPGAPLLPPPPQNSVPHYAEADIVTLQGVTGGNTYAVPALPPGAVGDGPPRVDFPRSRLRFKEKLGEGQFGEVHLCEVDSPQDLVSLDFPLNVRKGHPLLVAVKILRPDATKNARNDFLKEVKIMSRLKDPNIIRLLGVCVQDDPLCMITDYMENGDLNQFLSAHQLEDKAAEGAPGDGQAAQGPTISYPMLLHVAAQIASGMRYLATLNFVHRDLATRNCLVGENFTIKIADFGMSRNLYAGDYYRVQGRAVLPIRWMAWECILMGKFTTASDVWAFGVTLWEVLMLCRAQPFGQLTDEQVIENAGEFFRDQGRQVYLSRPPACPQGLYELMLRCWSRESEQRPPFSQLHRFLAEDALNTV

Ki (DDR1)	Ki (DDR2)	Compound
< 5 nM	5 to 25 nM	Cc1ccc(C(=O)Nc2ccc(OC(F)(F)F)cn2)cc1[C@@H]1CCN(c2cncc(C(N)=O)c2)C1 [Example 10, (S)-5-(3-(2-methyl-5-((5-(trifluoromethoxy)pyridin-2-yl)carbamoyl)phenyl)pyrrolidin-1-yl)nicotinamide]
< 5 nM	< 5 nM	Cc1ccc(C(=O)Nc2cc(C(C)(C)C)on2)cc1[C@@H]1CCN(c2cncc(C(N)=O)c2)C1 [Example 11, (S)-5-(3-(5-((5-(tert-butyl)isoxazol-3-yl)carbamoyl)-2-methylphenyl)pyrrolidin-1-yl)nicotinamide]
< 5 nM	< 5 nM	Cc1ccc(C(=O)Nc2cc(OC(F)(F)F)ccn2)cc1[C@@H]1CCN(c2cncnc2)C1 [Example 12, (S)-4-methyl-3-(1-(pyrimidin-5-yl)pyrrolidin-3-yl)-N-(4-(trifluoro-methoxy)pyridin-2-yl)benzamide]
< 5 nM	< 5 nM	Cc1ccc(C(=O)Nc2cc(C(C)(C)C)n(C)n2)cc1[C@@H]1CCN(c2cncnc2)C1 [Example 13, (S)-N-(5-(tert-butyl)-1-methyl-1H-pyrazol-3-yl)-4-methyl-3-(1-(pyrimidin-5-yl)pyrrolidin-3-yl)benzamide]
< 5 nM	< 5 nM	Cc1ccc(C(=O)Nc2cc(C(C)(C)C(F)(F)F)on2)cc1[C@@H]1CCN(c2cncnc2)C1 [Example 14, (S)-4-methyl-3-(1-(pyrimidin-5-yl)pyrrolidin-3-yl)-N-(5-(1,1,1-trifluoro-2-methylpropan-2-yl)isoxazol-3-yl)benzamide]
< 5 nM	< 5 nM	Cc1ccc(C(=O)Nc2cc(C(F)(F)F)ccn2)cc1[C@@H]1CCN(c2cncnc2)C1 [Example 15, (S)-4-methyl-3-(1-(pyrimidin-5-yl)pyrrolidin-3-yl)-N-(4-(trifluoromethyl)pyridin-2-yl)benzamide]
< 5 nM	< 5 nM	Cc1ccc(C(=O)Nc2cc(C(C)(C)C)on2)cc1[C@@H]1CCN(c2cncnc2)C1 [Example 16, (S)-N-(5-(tert-butyl)isoxazol-3-yl)-4-methyl-3-(1-(pyrimidin-5-yl)pyrrolidin-3-yl)benzamide]
< 5 nM	5 to 25 nM	Cc1ccc(C(=O)Nc2cc(C(C)(C)C)nn2C)cc1[C@@H]1CCN(c2cncnc2)C1 [Example 17, (S)-N-(3-(tert-butyl)-1-methyl-1H-pyrazol-5-yl)-4-methyl-3-(1-(pyrimidin-5-yl)pyrrolidin-3-yl)benzamide]
< 5 nM	< 5 nM	Cc1ccc(C(=O)Nc2cncc(OC(F)(F)F)c2)cc1[C@@H]1CCN(c2cncnc2)C1 [Example 18, (S)-4-methyl-3-(1-(pyrimidin-5-yl)pyrrolidin-3-yl)-N-(5-(trifluoromethoxy)pyridin-3-yl)benzamide]
< 5 nM	< 5 nM	Cc1ccc(C(=O)Nc2cc(C(C)(C)C)no2)cc1[C@@H]1CCN(c2cncnc2)C1 [Example 19, (S)-N-(3-(tert-butyl)isoxazol-5-yl)-4-methyl-3-(1-(pyrimidin-5-yl)pyrrolidin-3-yl)benzamide]
< 5 nM	5 to 25 nM	Cc1ccc(C(=O)Nc2ccc(OC(F)(F)F)cn2)cc1[C@@H]1CCN(c2cncnc2)C1 [Example 20, (S)-4-methyl-3-(1-(pyrimidin-5-yl)pyrrolidin-3-yl)-N-(5-(trifluoromethoxy)pyridin-2-yl)benzamide]
< 5 nM	< 5 nM	Cc1ccc(C(=O)Nc2cc(OC(F)F)ccn2)cc1[C@@H]1CCN(c2cncnc2)C1 [Example 21, (S)-N-(4-(difluoromethoxy)pyridin-2-yl)-4-methyl-3-(1-(pyrimidin-5-yl)pyrrolidin-3-yl)benzamide]
< 5 nM	5 to 25 nM	Cc1ccc(C(=O)Nc2cncc(C(F)(F)F)c2)cc1[C@@H]1CCN(c2cncc(C(F)F)c2)C1 [Example 22, (S)-3-(1-(5-(difluoromethyl)pyridin-3-yl)pyrrolidin-3-yl)-4-methyl-N-(5-(trifluoromethyl)pyridin-3-yl)benzamide]
< 5 nM	5 to 25 nM	Cc1ccc(C(=O)Nc2cncc(C(F)(F)F)c2)cc1[C@@H]1CCN(c2cncc(C(=O)NCCN(C)C)c2)C1 [Example 23, (S)-N-(2-(dimethylamino)ethyl)-5-(3-(2-methyl-5-((5-(trifluoromethyl)pyridin-3-yl)carbamoyl)phenyl)pyrrolidin-1-yl)nicotinamide]
< 5 nM	< 5 nM	COCCNC(=O)c1cncc(N2CC[C@@H](c3cc(C(=O)Nc4cncc(C(F)(F)F)c4)ccc3C)C2)c1 [Example 24, (S)-N-(2-methoxyethyl)-5-(3-(2-methyl-5-((5-(trifluoromethyl)pyridin-3-yl)carbamoyl)phenyl)pyrrolidin-1-yl)nicotinamide]
< 5 nM	5 to 25 nM	COc1ncc(N2CC[C@@H](c3cc(C(=O)Nc4cncc(C(F)(F)F)c4)ccc3C)C2)cn1 [Example 25, (S)-3-(1-(2-methoxypyrimidin-5-yl)pyrrolidin-3-yl)-4-methyl-N-(5-(trifluoromethyl)pyridin-3-yl)benzamide]
< 5 nM	< 5 nM	Cc1ccc(C(=O)Nc2cncc(C(F)(F)F)c2)cc1[C@@H]1CCN(c2cncc(C#N)c2)C1 [Example 27, (S)-3-(1-(5-cyanopyridin-3-yl)pyrrolidin-3-yl)-4-methyl-N-(5-(trifluoromethyl)pyridin-3-yl)benzamide]
< 5 nM	< 5 nM	CC(=O)Nc1cncc(N2CC[C@@H](c3cc(C(=O)Nc4cncc(C(F)(F)F)c4)ccc3C)C2)c1 [Example 28, (S)-3-(1-(5-acetamidopyridin-3-yl)pyrrolidin-3-yl)-4-methyl-N-(5-(trifluoromethyl)pyridin-3-yl)benzamide]
< 5 nM	< 5 nM	CNC(=O)c1cncc(N2CC[C@@H](c3cc(C(=O)Nc4cncc(C(F)(F)F)c4)ccc3C)C2)c1 [Example 29, (S)-N-methyl-5-(3-(2-methyl-5-((5-(trifluoromethyl)pyridin-3-yl)carbamoyl)phenyl)pyrrolidin-1-yl)nicotinamide]
< 5 nM	5 to 25 nM	Cc1ccc(C(=O)Nc2cncc(C(F)(F)F)c2)cc1[C@@H]1CCN(c2cncc(C(=O)NCCO)c2)C1 [Example 30, (S)-N-(2-hydroxyethyl)-5-(3-(2-methyl-5-((5-(trifluoromethyl)pyridin-3-yl)carbamoyl)phenyl)pyrrolidin-1-yl)nicotinamide]
< 5 nM	< 5 nM	Cc1ccc(C(=O)Nc2cncc(C(F)(F)F)c2)cc1[C@@H]1CCN(c2cnn3ccncc23)C1 [Example 32, (S)-4-methyl-3-(1-(pyrazolo[1,5-a]pyrazin-3-yl)pyrrolidin-3-yl)-N-(5-(trifluoromethyl)pyridin-3-yl)benzamide]
< 5 nM	< 5 nM	Cc1ccc(C(=O)Nc2cncc(C(F)(F)F)c2)cc1[C@@H]1CCN(c2cnccn2)C1 [Example 33, (S)-4-methyl-3-(1-(pyrazin-2-yl)pyrrolidin-3-yl)-N-(5-(trifluoromethyl)pyridin-3-yl)benzamide]
< 5 nM	5 to 25 nM	Cc1ccc(C(=O)Nc2cncc(C(F)(F)F)c2)cc1[C@@H]1CCN(c2cnn3ccccc23)C1 [Example 34, (S)-4-methyl-3-(1-(pyrazolo[1,5-a]pyridin-3-yl)pyrrolidin-3-yl)-N-(5-(trifluoromethyl)pyridin-3-yl)benzamide]
< 5 nM	< 5 nM	Cc1ccc(C(=O)Nc2cncc(C(F)(F)F)c2)cc1[C@@H]1CCN(c2cnn3cccnc23)C1 [Example 35, (S)-4-methyl-3-(1-(pyrazolo[1,5-a]pyrimidin-3-yl)pyrrolidin-3-yl)-N-(5-(trifluoromethyl)pyridin-3-yl)benzamide]
< 5 nM	5 to 25 nM	Cc1ccc(C(=O)Nc2cncc(C(F)(F)F)c2)cc1[C@@H]1CCN(c2cnc3cccnn23)C1 [Example 36, (S)-3-(1-(imidazo[1,2-b]pyridazin-3-yl)pyrrolidin-3-yl)-4-methyl-N-(5-(trifluoromethyl)pyridin-3-yl)benzamide]
